# Data taken from patent US20250026725A1, “HYDRATE CRYSTAL OF 5-CHLORO-4-(3-CHLORO-4- METHYLPHENYL)-1H-IMIDAZOLE-2-CARBONITRILE” (ISHIHARA SANGYO KAISHA, LTD., priority 2021, published 2025).
# How the values were obtained:
# [1] = system: Trichophyton rubrum (ATCCMYA4607); assay: Antifungal activity test, minimum inhibitory concentration (MIC100); assay type: cell-based; conditions: Sabouraud medium, 32° C. for 72 hours
# Method: Trichophyton rubrum was cultured on a Sabouraud medium at 32° C. for 168 hours to form spores. Mycelia were peeled from a medium surface and collected into a tube, physiological saline solution (OTSUKA NORMAL SALINE; containing the equivalent of 9 g of sodium chloride in 1000 mL) was added thereto, and the entire mixture was mixed and dispersed with a disposable loop (Type 1 (1 μL)) to collect a spore suspension containing mycelia. The spore suspension containing mycelia was filtered through a cell strainer (+40 μm). Spores were collected from a filtrate by centrifugation (3500 rpm, 5 minutes), and washed twice with physiological saline to prepare a spore suspension (1×10^6 cells/mL). 10 μL of the spore suspension was inoculated into the Sabouraud medium to which the test compound dissolved in DMSO was added so as to have a predetermined concentration. Trichophyton rubrum was cultured at 32° C. for 72 hours, and then the presence or absence of the development of colonies was examined to determine a minimum inhibitory concentration (MIC100).
# A minimum inhibitory concentration (MIC100) for Trichophyton rubrum (ATCCMYA4607) was determined in the same method as in Test Example 12 except that the hydrate crystal (Production Example 2) was used as the compound under test.
# [2] = system: Microsporum canis (IFM63627); assay: as above; assay type: cell-based; conditions: Sabouraud medium, 32° C. for 72 hours
# Method: Microsporum canis was cultured on a 1/10 Sabouraud medium at 32° C. for 168 hours to form spores. Then, 10 mL of physiological saline solution (OTSUKA NORMAL SALINE; containing the equivalent of 9 g of sodium chloride in 1000 mL) was directly added over the medium, and the surface was scraped with a disposable loop (Type 1 (1 μL) to collect a spore suspension containing mycelia. The spore suspension containing mycelia was filtered through a cell strainer (+40 μm). Spores were collected from a filtrate by centrifugation (3500 rpm, 5 minutes), and washed twice with physiological saline to prepare a spore suspension (1×10^7 cells/mL). 10 μL of the spore suspension was inoculated into a Sabouraud medium to which the compound under test dissolved in DMSO was added so as to have a predetermined concentration. Microsporum canis was cultured at 32° C. for 72 hours, and then the presence or absence of the development of colonies was examined to determine a minimum inhibitory concentration (MIC100).
# A minimum inhibitory concentration (MIC100) for Microsporum canis (IFM63627) was determined in the same method as in Test Example 7 except that the hydrate crystal (Production Example 2) was used as the compound under test.
smiles,measurement,setting,value
"Cc1ccc(-c2nc(C#N)[nH]c2Cl)cc1Cl [Anhydrous crystal, 5-chloro-4-(3-chloro-4-methylphenyl)-1H-imidazole-2-carbonitrile]",MIC,[1],5 µg/mL
same,MIC,[2],5 µg/mL
